Measurements: patent US8846719B2, “Isoxazolo-pyridine derivatives” (Roche Palo Alto LLC, priority 2007, dated 2014)

Molecular target: human GABA A receptor α5β3γ2 (Homo sapiens (Human), UniProt P18507+P31644)
Experiment: [3H]flumazenil competition binding assay, human GABA A α5β3γ2 receptors expressed in HEK293 cells
Conditions: human receptor; displacement of [3H]flumazenil (0.5 nM); means of two determinations; read-out: hKi GABAAa5
Procedure, shortened: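 Competition for [3H]flumazenil binding on membranes of HEK293 cells transiently transfected with human α5β3γ2 receptors, in Krebs-tris buffer pH 7.5.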

Cc1onc(-c2ccccc2)c1COc1ccc(C(=O)NC(C)(C)CO)cn1 [Example 183, N-(2-Hydroxy-1,1-dimethyl-ethyl)-6-(5-methyl-3-phenyl-isoxazol-4-ylmethoxy)-nicotinamide]
Ki: 10 nM

COCCNC(=O)c1ccc(OCc2c(-c3ccccc3)noc2C)nc1 [Example 184, N-(2-Methoxy-ethyl)-6-(5-methyl-3-phenyl-isoxazol-4-ylmethoxy)-nicotinamide]
Ki: 7.8 nM

Cc1onc(-c2ccccc2)c1COc1ccc(C(=O)NC2CCS(=O)(=O)C2)cn1 (centres unmarked) [Example 185, N-(1,1-Dioxo-tetrahydro-thiophen-3-yl)-6-(5-methyl-3-phenyl-isoxazol-4-ylmethoxy)-nicotinamide]
Ki: 4.5 nM

Cc1onc(-c2ccccc2)c1COc1ccc(C(=O)NCC(O)C(F)(F)F)cn1 (centres unmarked) [Example 186, 6-(5-Methyl-3-phenyl-isoxazol-4-ylmethoxy)-N-(3,3,3-trifluoro-2-hydroxy-propyl)-nicotinamide]
Ki: 2.3 nM

Cc1onc(-c2ccccc2)c1COc1ccc(C(=O)N2CCC(O)CC2)cn1 [Example 187, (4-Hydroxy-piperidin-1-yl)-[6-(5-methyl-3-phenyl-isoxazol-4-ylmethoxy)-pyridin-3-yl]-methanone]
Ki: 73.4 nM

Cc1onc(-c2ccccc2)c1COc1ccc(C(=O)NCC(C)(C)CO)cn1 [Example 188, N-(3-Hydroxy-2,2-dimethyl-propyl)-6-(5-methyl-3-phenyl-isoxazol-4-ylmethoxy)-nicotinamide]
Ki: 7.7 nM

Cc1onc(-c2ccccc2)c1COc1ccc(C(=O)NCCOC(C)C)cn1 [Example 189, N-(2-Isopropoxy-ethyl)-6-(5-methyl-3-phenyl-isoxazol-4-ylmethoxy)-nicotinamide]
Ki: 41.3 nM

Cc1onc(-c2ccccc2)c1COc1ccc(C(=O)NC(C)CO)cn1 (centres unmarked) [Example 190, N-(2-Hydroxy-1-methyl-ethyl)-6-(5-methyl-3-phenyl-isoxazol-4-ylmethoxy)-nicotinamide]
Ki: 1 nM

Cc1onc(-c2ccccc2)c1COc1ccc(C(=O)N2CC(O)C2)cn1 [Example 191, (3-Hydroxy-azetidin-1-yl)-[6-(5-methyl-3-phenyl-isoxazol-4-ylmethoxy)-pyridin-3-yl]-methanone]
Ki: 5 nM

Cc1onc(-c2ccccc2)c1COc1ccc(C(=O)NC2CCCCC2O)cn1 (centres unmarked) [Example 192, N-(2-Hydroxy-cyclohexyl)-6-(5-methyl-3-phenyl-isoxazol-4-ylmethoxy)-nicotinamide]
Ki: 2.9 nM

Cc1onc(-c2ccccc2)c1COc1ccc(C(=O)NCC(C)(C)O)cn1 [Example 193, N-(2-Hydroxy-2-methyl-propyl)-6-(5-methyl-3-phenyl-isoxazol-4-ylmethoxy)-nicotinamide]
Ki: 2.3 nM

Cc1onc(-c2ccccc2)c1COc1ccc(C(=O)NCC2(O)CC2)cn1 [Example 194, N-(1-Hydroxy-cyclopropylmethyl)-6-(5-methyl-3-phenyl-isoxazol-4-ylmethoxy)-nicotinamide]
Ki: 2.1 nM

Cc1onc(-c2ccccc2)c1COc1ccc(C(=O)N[C@H](C)CO)cn1 [Example 195, N—((R)-2-Hydroxy-1-methyl-ethyl)-6-(5-methyl-3-phenyl-isoxazol-4-ylmethoxy)-nicotinamide]
Ki: 1.7 nM

Cc1onc(-c2ccccc2)c1COc1ccc(C(=O)N[C@@H](C)CO)cn1 [Example 196, N—((S)-2-Hydroxy-1-methyl-ethyl)-6-(5-methyl-3-phenyl-isoxazol-4-ylmethoxy)-nicotinamide]
Ki: 0.7 nM

Cc1onc(-c2ccccc2)c1COc1ccc(C(=O)N[C@@H]2CCCC[C@H]2O)cn1 [Example 197, N-((1R,2R)-2-Hydroxy-cyclohexyl)-6-(5-methyl-3-phenyl-isoxazol-4-ylmethoxy)-nicotinamide]
Ki: 11 nM

Cc1onc(-c2ccccc2)c1COc1ccc(C(=O)N[C@H]2CCCC[C@@H]2O)cn1 [Example 198, N-((1S,2S)-2-Hydroxy-cyclohexyl)-6-(5-methyl-3-phenyl-isoxazol-4-ylmethoxy)-nicotinamide]
Ki: 6.5 nM

Cc1onc(-c2ccccc2)c1COc1ccc(C(=O)NC2CCCC2O)cn1 (centres unmarked) [Example 200, N-(2-Hydroxy-cyclopentyl)-6-(5-methyl-3-phenyl-isoxazol-4-ylmethoxy)-nicotinamide]
Ki: 3.9 nM

Cc1onc(-c2ccccc2)c1COc1ccc(C(=O)NC(CO)CO)cn1 [Example 201, N-(2-Hydroxy-1-hydroxymethyl-ethyl)-6-(5-methyl-3-phenyl-isoxazol-4-ylmethoxy)-nicotinamide]
Ki: 1.7 nM

Cc1onc(-c2ccccc2)c1COc1ccc(C(=O)N[C@H]2CCOC2)cn1 [Example 202, 6-(5-Methyl-3-phenyl-isoxazol-4-ylmethoxy)-N—(S)-tetrahydro-furan-3-yl-nicotinamide]
Ki: 1.6 nM

CC(=O)NCCNC(=O)c1ccc(OCc2c(-c3ccccc3)noc2C)nc1 [Example 205, N-(2-Acetylamino-ethyl)-6-(5-methyl-3-phenyl-isoxazol-4-ylmethoxy)-nicotinamide]
Ki: 4 nM

Cc1onc(-c2ccccc2)c1COc1ccc(C(=O)N[C@H](CO)C(C)C)cn1 [Example 206, N—((S)-1-Hydroxymethyl-2-methyl-propyl)-6-(5-methyl-3-phenyl-isoxazol-4-ylmethoxy)-nicotinamide]
Ki: 1.8 nM

Cc1onc(-c2ccccc2)c1COc1ccc(C(=O)N[C@H](CO)CC(C)C)cn1 [Example 207, N—((S)-1-Hydroxymethyl-3-methyl-butyl)-6-(5-methyl-3-phenyl-isoxazol-4-ylmethoxy)-nicotinamide]
Ki: 10.9 nM

CC[C@@H](CO)NC(=O)c1ccc(OCc2c(-c3ccccc3)noc2C)nc1 [Example 208, N—((S)-1-Hydroxymethyl-propyl)-6-(5-methyl-3-phenyl-isoxazol-4-ylmethoxy)-nicotinamide]
Ki: 0.7 nM

CC[C@H](CO)NC(=O)c1ccc(OCc2c(-c3ccccc3)noc2C)nc1 [Example 209, N—((R)-1-Hydroxymethyl-propyl)-6-(5-methyl-3-phenyl-isoxazol-4-ylmethoxy)-nicotinamide]
Ki: 2.3 nM

Cc1onc(-c2ccccc2)c1COc1ccc(C(=O)NCCN2CCNC2=O)cn1 [Example 214, 6-(5-Methyl-3-phenyl-isoxazol-4-ylmethoxy)-N-[2-(2-oxo-imidazolidin-1-yl)-ethyl]-nicotinamide]
Ki: 4.3 nM

Cc1onc(-c2ccccc2)c1COc1ccc(C(=O)NCCC(C)O)cn1 (centres unmarked) [Example 215, N-(3-Hydroxy-butyl)-6-(5-methyl-3-phenyl-isoxazol-4-ylmethoxy)-nicotinamide]
Ki: 2.3 nM

Cc1onc(-c2ccccc2)c1COc1ccc(C(=O)NC2CN(C(=O)OC(C)(C)C)C2)cn1 [Example 216, 3-{[6-(5-Methyl-3-phenyl-isoxazol-4-ylmethoxy)-pyridine-3-carbonyl]-amino}-azetidine-1-carboxylic acid tert-butyl ester]
Ki: 4.5 nM

Cc1onc(-c2ccccc2)c1COc1ccc(C(=O)NCCNC(=O)OC(C)(C)C)cn1 [Example 217, (2-{[6-(5-Methyl-3-phenyl-isoxazol-4-ylmethoxy)-pyridine-3-carbonyl]-amino}-ethyl)-carbamic acid tert-butyl ester]
Ki: 8.4 nM

Cc1onc(-c2ccccc2)c1COc1ccc(C(=O)NCC(O)CO)cn1 (centres unmarked) [Example 218, N-(2,3-Dihydroxy-propyl)-6-(5-methyl-3-phenyl-isoxazol-4-ylmethoxy)-nicotinamide]
Ki: 2 nM

Cc1onc(-c2ccccc2)c1COc1ccc(C(=O)NCCCO)cn1 [Example 219, N-(3-Hydroxy-propyl)-6-(5-methyl-3-phenyl-isoxazol-4-ylmethoxy)-nicotinamide]
Ki: 2.2 nM

Cc1onc(-c2ccccc2)c1COc1ccc(C(=O)NCCCCO)cn1 [Example 220, N-(4-Hydroxy-butyl)-6-(5-methyl-3-phenyl-isoxazol-4-ylmethoxy)-nicotinamide]
Ki: 2.6 nM

Cc1onc(-c2ccccc2)c1COc1ccc(C(=O)NCCCCCO)cn1 [Example 221, N-(5-Hydroxy-pentyl)-6-(5-methyl-3-phenyl-isoxazol-4-ylmethoxy)-nicotinamide]
Ki: 4.1 nM

Cc1onc(-c2ccccc2)c1COc1ccc(C(=O)NCCCCCCO)cn1 [Example 222, N-(6-Hydroxy-hexyl)-6-(5-methyl-3-phenyl-isoxazol-4-ylmethoxy)-nicotinamide]
Ki: 8.2 nM

Cc1onc(-c2ccccc2)c1COc1ccc(C(=O)N2CCC(O)C2)cn1 (centres unmarked) [Example 223, (3-Hydroxy-pyrrolidin-1-yl)-[6-(5-methyl-3-phenyl-isoxazol-4-ylmethoxy)-pyridin-3-yl]-methanone]
Ki: 26.1 nM

Cc1onc(-c2ccccc2)c1COc1ccc(C(=O)N2CCC[C@H]2CO)cn1 [Example 224]
Ki: 41.9 nM

Cc1onc(-c2ccccc2)c1COc1ccc(C(=O)N2CCC[C@@H]2CO)cn1 [Example 225]
Ki: 20.2 nM

Cc1onc(-c2ccccc2)c1COc1ccc(C(=O)NC2CC(OCc3ccccc3)C2)cn1 (centres unmarked) [Example 226, N-(3-Benzyloxy-cyclobutyl)-6-(5-methyl-3-phenyl-isoxazol-4-ylmethoxy)-nicotinamide]
Ki: 2.6 nM

Cc1onc(-c2ccccc2)c1COc1ccc(C(=O)N2CCCC2C)cn1 (centres unmarked) [Example 227, [6-(5-Methyl-3-phenyl-isoxazol-4-ylmethoxy)-pyridin-3-yl]-(2-methyl-pyrrolidin-1-yl)-methanone]
Ki: 48 nM

Cc1onc(-c2ccccc2)c1COc1ccc(C(=O)N2CCCC2)cn1 [Example 228, [6-(5-Methyl-3-phenyl-isoxazol-4-ylmethoxy)-pyridin-3-yl]-pyrrolidin-1-yl-methanone]
Ki: 37.1 nM

COC(=O)[C@H](Cc1ccccc1)NC(=O)c1ccc(OCc2c(-c3ccccc3)noc2C)nc1 [Example 229, (S)-2-{[6-(5-Methyl-3-phenyl-isoxazol-4-ylmethoxy)-pyridine-3-carbonyl]-amino}-3-phenyl-propionic acid methyl ester]
Ki: 47.7 nM

Cc1onc(-c2ccccc2)c1COc1ccc(C(=O)NC2CC(OCc3ccccc3)C2)cn1 (stereo not drawn) [Example 230, (cis or trans)-N-(3-Benzyloxy-cyclobutyl)-6-(5-methyl-3-phenyl-isoxazol-4-ylmethoxy)-nicotinamide]
Ki: 1.2 nM
